In publication PMC9782211 (Microorganisms, 2022):

Legend:
human PBMC cells = assay: Bionas chip-based system, respiration rate; type: cell-based; conditions: 24 h peptide exposure
Procedure: Cytotoxicity was assayed by using the chip-based Bionas system with four different cell types. These include human hepatoma cells (HepG2), human colon adenocarcinoma cells (LS-174T), human acute lymphocytic leukemic cells (Jurkat), and human peripheral blood mononuclear cells (hPBMC), provided by Cell Line Services (Piscataway, NJ, USA) and ProBioGen (Berlin, Germany). The cells were seeded on chips, with a density of 200,000 cells/chip for HepG2 and LS-174T, 300,000 cells/chip for Jurkat, and 2 million cells/chip for PBMC.
A metabolic investigation with four cells and cell lines on the effect of Pep19-2.5 on selected cell parameters was performed. In detail, see Table 1.
The analysis was performed in the Bionas® 2500 analyzing system by seeding the cells on the chips, with cell numbers of 200,000 for HepG2 cells and LS-174T cells, and 300,000 for Jurkat cells. The suspended cells were embedded on the day of the experiment in agarose and immediately put into the Bionas® 2500 analyzing system. The settling phase (‘RM’) was 5 h. The peptides were added after 5 h for 24 h, then a regeneration phase followed for 4 h (‘RM’), and in the last phase the cells were lysed with 0.2% triton in fresh medium (‘TX’). For the parameters acidification, respiration, and adhesion (impedance), the mean values from two experiments were calculated. […]

[1] = target: T1, hERG ion channel (gene ID 3757) (Homo sapiens, UniProt Q12809); assay: Automated planar patch clamp (QPatch), hERG in CHO cells; type: cell-based; conditions: for relative remaining hERG current: QPatch
T1 construct: expressed in transfected cells
Procedure: For automated patch clamp experiments, QPatch, a planar patch clamp robot, was used. QPatch experiments were performed as previously described. […] Patch clamp experiments were performed in the whole-cell voltage clamp mode on a planar patch clamp chip. Successfully clamped cells were stimulated with the following stimulation protocol: From a holding potential of −80 mV, the cells were partially depolarized to −50 mV to test the leak current at this potential where hERG channels are closed. This was followed by a depolarization to +40 mV. At this depolarized potential, the hERG channels alternate between the open and inactivated states. After partially repolarizing to −50 mV, the inactivated subpopulation of hERG channels rapidly recovers from inactivation and switches into the open state, from where the channels slowly close.
Aspidasept (Pep19-2.5) was applied at nominal concentrations of 1 µg/mL, 10 µg/mL, and 100 µg/mL, and remaining hERG mediated potassium channel currents normalized to initial currents were calculated.

male Wistar rats = assay: Modified Irwin test (neurobehavioral activity)
Procedure: In this test, an examination is done whether or not drugs induce behavioural and physiologically relevant effects. […] The modified Irwin test was performed under GLP conditions and was comprised of a standard observation battery of tests addressing various parameters of the central nervous, autonomic nervous, peripheral motor, and sensory systems.
The study comprised five treatment groups with six male animals each.
The following investigations were made at the following time points: • Mortality: twice daily during the observation period • Clinical observations: on the day of treatment before application • Body weight development: on the day of delivery and on the day of treatment before application • Modified Irwin test: at the time points pre-test (24 h prior to administration), 1 h, 4 h, 7 h, 24 h, 48 h, and 72 h after application.
Statistical analyses of the data were performed for each group separately. Group mean values (means) with standard deviation (SD) were calculated for body weights, each parameter of the Irwin Test, and each investigation time point.
For Irwin Test parameters, statistical differences between the positive control group and the vehicle control group and between the test item groups and the vehicle control group were evaluated by the Mann–Whitney U-test, using an MS Excel® statistics tool developed and validated in-house; p < 0.05 was accepted as the level of significance.

T1 sequence (Q12809 whole entry): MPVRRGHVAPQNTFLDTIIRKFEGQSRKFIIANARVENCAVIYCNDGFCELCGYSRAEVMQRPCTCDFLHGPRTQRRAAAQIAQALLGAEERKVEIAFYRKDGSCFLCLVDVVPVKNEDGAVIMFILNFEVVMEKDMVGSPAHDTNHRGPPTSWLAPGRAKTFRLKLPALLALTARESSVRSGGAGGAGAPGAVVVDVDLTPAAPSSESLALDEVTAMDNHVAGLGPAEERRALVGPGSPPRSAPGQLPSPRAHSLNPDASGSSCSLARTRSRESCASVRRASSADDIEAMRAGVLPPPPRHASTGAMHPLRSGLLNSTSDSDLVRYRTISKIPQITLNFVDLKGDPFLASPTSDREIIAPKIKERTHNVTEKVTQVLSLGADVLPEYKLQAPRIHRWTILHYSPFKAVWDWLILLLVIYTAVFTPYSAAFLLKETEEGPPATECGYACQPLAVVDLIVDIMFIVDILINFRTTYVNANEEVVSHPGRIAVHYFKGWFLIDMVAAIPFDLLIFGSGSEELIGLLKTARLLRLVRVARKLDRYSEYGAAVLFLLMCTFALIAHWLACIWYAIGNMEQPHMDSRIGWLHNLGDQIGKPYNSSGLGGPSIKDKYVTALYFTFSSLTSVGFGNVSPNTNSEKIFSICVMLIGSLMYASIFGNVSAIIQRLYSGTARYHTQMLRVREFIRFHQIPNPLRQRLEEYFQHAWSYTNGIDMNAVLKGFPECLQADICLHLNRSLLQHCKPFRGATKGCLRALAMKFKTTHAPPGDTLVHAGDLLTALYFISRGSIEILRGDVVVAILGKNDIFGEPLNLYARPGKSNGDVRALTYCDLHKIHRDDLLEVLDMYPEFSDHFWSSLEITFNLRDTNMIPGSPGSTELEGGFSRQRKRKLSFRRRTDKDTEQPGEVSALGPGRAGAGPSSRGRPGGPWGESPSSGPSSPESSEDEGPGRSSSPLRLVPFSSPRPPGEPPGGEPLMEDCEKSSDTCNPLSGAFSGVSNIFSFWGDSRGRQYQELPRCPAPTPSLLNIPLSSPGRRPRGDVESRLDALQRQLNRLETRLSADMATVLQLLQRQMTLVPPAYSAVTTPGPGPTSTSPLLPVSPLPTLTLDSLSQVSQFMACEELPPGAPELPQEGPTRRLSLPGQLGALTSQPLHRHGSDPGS

## N=C(N)NCCC[C@H](NC(=O)[C@H](Cc1ccc(O)cc1)NC(=O)[C@H](CCCCN)NC(=O)[C@H](CCCCN)NC(=O)[C@H](CS)NC(=O)CN)C(=O)N[C@@H](CCCNC(=N)N)C(=O)N[C@@H](Cc1ccccc1)C(=O)N[C@@H](CCCNC(=N)N)C(=O)N[C@@H](Cc1c[nH]c2ccccc12)C(=O)N[C@@H](CCCCN)C(=O)N[C@@H](Cc1ccccc1)C(=O)N[C@@H](CCCCN)C(=O)NCC(=O)N[C@@H](CCCCN)C(=O)N[C@@H](Cc1ccccc1)C(=O)N[C@@H](Cc1c[nH]c2ccccc12)C(=O)N[C@@H](Cc1ccccc1)C(=O)N[C@@H](Cc1c[nH]c2ccccc12)C(=O)NCC(N)=O [Pep19-2.5]
Human PBMC cells
  concentration above which respiration rate increased significantly: above 50 μg/mL
[1]; 1 µg/mL, fraction
  Rel. Rem. Current ± SD (QPatch): 0.97 ± 0.02
[1]; 10 µg/mL, fraction
  Rel. Rem. Current (QPatch, 20 min Application): 0.92
  Rel. Rem. Current ± SD (QPatch): 0.95 ± 0.02
[1]; 1 µg/mL (Aspidasept n = 4; Pep19-4LF n = 3)
  relative remaining hERG current: 97.2 ± 2.2%
[1]; 10 µg/mL (Aspidasept n = 4; Pep19-4LF n = 1)
  relative remaining hERG current: 95.2 ± 2.5%
[1]; 10 µg/mL applied for up to 20 min
  relative remaining hERG current: 92.2%
[1]; estimated, no significant effect at highest concentration tested (10 µg/mL), read-out: hypothetical IC50 on hERG-mediated potassium current
  IC50: > 3.69 µM
Male Wistar rats; 0.02 mg/kg b.w., 1 h, negative control 0.0, not significant
  spontaneous locomotor activity, median score: −0.5
Male Wistar rats; 0.02 mg/kg, 1 h, saline 1.0, p < 0.05
  positional passivity, median score: 0.0
Male Wistar rats; 0.02 mg/kg, 72 h, negative control 1.0
  hind limb tone, median score: 2.0
Male Wistar rats; 0.2 mg/kg b.w., 48 and 72 h, saline −1.0, p < 0.05 at 72 h
  spontaneous locomotor activity, median score: 0.5
Male Wistar rats; 0.2 mg/kg b.w., 1 h, negative control 0.0, not significant
  spontaneous locomotor activity, median score: −1.0
Male Wistar rats; 0.2 mg/kg, 7 h, saline −1.0, p < 0.01
  head touch, median score: 0.0
Male Wistar rats; 0.2 mg/kg, 48 h, saline −1.0, p < 0.05
  rearing, median score: 1.0
Male Wistar rats; 0.2 mg/kg, 72 h, saline 0.0, p < 0.05
  finger approach, median score: 2.0
Male Wistar rats; 0.2 mg/kg, 72 h, saline −1.0, p < 0.01
  rearing, median score: 1.0
Male Wistar rats; 2 mg/kg b.w., 1 h, negative control 0.0, not significant
  spontaneous locomotor activity, median score: −1.0
Male Wistar rats; high dose 2 mg/kg single i.v.
  effect in Irwin test: Significant differences were also observed in the high dose group (2 mg/kg), in terms of sensitivity to pinching the tail and vocalization when touched and hind limb reflex
Male Wistar rats; high dose 2 mg/kg, 1 and 24 h, control 0.0, p < 0.05
  vocalization when touched, median score: 1.0
Male Wistar rats; high dose 2 mg/kg, 1 h, negative control 0.0, p < 0.01
  sensitivity to pinching of the tail, median score: −1.5
Male Wistar rats; high dose 2 mg/kg, 7 h, saline 0.0, p < 0.05
  sensitivity to pinching of the tail, median score: −1.5
Male Wistar rats; low dose 0.02 mg/kg single i.v.
  effect in Irwin test: No effect
Male Wistar rats; low dose 0.02 mg/kg, 1 h
  sensitivity to pinching of the tail, median score: 0.0
Male Wistar rats; mid dose 0.2 mg/kg single i.v.
  effect in Irwin test: significant differences to the negative control were noted in rearing, spontaneous locomotor activity and sensitivity to pinching the tail
Male Wistar rats; mid dose 0.2 mg/kg, 1 h
  sensitivity to pinching of the tail, median score: −1.5
Male Wistar rats; single i.v., 0.02, 0.2 and 2 mg/kg
  neurobehavioral effects overall: No relevant neurobehavioral effects
